Measurements from the supplement of paper PMC10883282.

Key:
Experiment in all cases: relative viability vs DMSO control (72 h) (fraction); higher = more viable cells
SW1353 = tested on: SW1353
Outline: (§1)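 Sarcoma cell lines were grown in 384-well plates seeded toward 80–90% confluence and exposed 24 h later to serially diluted compound. After 72 h at 37 °C and 5% CO2, with 0.1% DMSO vehicle and a 5 µM positive control on the plates, ATPLite was read. Relative viability, given as percent growth averaged over up to triplicate wells, was rescaled so that 1 is full and 0 is none.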

SW684 = tested on: SW684
Outline: as §1

HT1080 = tested on: HT1080
Outline: as §1

HS729 = tested on: HS729
Outline: as §1

G401 = tested on: G401
Outline: as §1

SYO-1 = tested on: SYO-1
Outline: as §1

SK-LMS-1 = tested on: SK-LMS-1
Outline: as §1

KHOS-NP = tested on: KHOS-NP
Outline: as §1

RD = tested on: RD
Outline: as §1

SW872 = tested on: SW872
Outline: as §1

RD-ES = tested on: RD-ES
Outline: as §1

KHOS-240S = tested on: KHOS-240S
Outline: as §1

CCCCCCCCCCCCCCCCCCOP(=O)([O-])OC1CC[N+](C)(C)CC1 [Perifosine]
Conditions	relative viability
G401, 0.00017 µM	1.057
G401, 0.00051 µM	1.06
G401, 0.00152 µM	1.07
G401, 0.00457 µM	1.07
G401, 0.01372 µM	1.06
G401, 0.04115 µM	1.059
G401, 0.1235 µM	1.064
G401, 0.3704 µM	1.06
G401, 1.111 µM	1.05
G401, 3.333 µM	1.03
G401, 10 µM	1.06
HS729, 0.00017 µM	1.06
HS729, 0.00051 µM	0.9606
HS729, 0.00152 µM	1.01
HS729, 0.00457 µM	1.02
HS729, 0.01372 µM	0.924
HS729, 0.04115 µM	0.931
HS729, 0.1235 µM	0.987
HS729, 0.3704 µM	0.909
HS729, 1.111 µM	0.902
HS729, 3.333 µM	0.904
HS729, 10 µM	0.913
HT1080, 0.00017 µM	1.1
HT1080, 0.00051 µM	1.083
HT1080, 0.00152 µM	1.07
HT1080, 0.00457 µM	1.06
HT1080, 0.01372 µM	1.063
HT1080, 0.04115 µM	1.06
HT1080, 0.1235 µM	1.04
HT1080, 0.3704 µM	1.0633
HT1080, 1.111 µM	1.04
HT1080, 3.333 µM	1.037
HT1080, 10 µM	1.05
KHOS-240S, 0.00017 µM	1.09
KHOS-240S, 0.00051 µM	1.1
KHOS-240S, 0.00152 µM	1.11
KHOS-240S, 0.00457 µM	1.1
KHOS-240S, 0.01372 µM	1.1
KHOS-240S, 0.04115 µM	1.09
KHOS-240S, 0.1235 µM	1.09
KHOS-240S, 0.3704 µM	1.08
KHOS-240S, 1.111 µM	1.09
KHOS-240S, 3.333 µM	1.04
KHOS-240S, 10 µM	0.818
KHOS-NP, 0.00017 µM	1.09
KHOS-NP, 0.00051 µM	1.1
KHOS-NP, 0.00152 µM	1.099
KHOS-NP, 0.00457 µM	1.11
KHOS-NP, 0.01372 µM	1.1
KHOS-NP, 0.04115 µM	1.08
KHOS-NP, 0.1235 µM	1.067
KHOS-NP, 0.3704 µM	1.07
KHOS-NP, 1.111 µM	1.03
KHOS-NP, 3.333 µM	0.984
KHOS-NP, 10 µM	0.496
RD, 0.00017 µM	1.05
RD, 0.00051 µM	1.07
RD, 0.00152 µM	1.09
RD, 0.00457 µM	1.11
RD, 0.01372 µM	1.07
RD, 0.04115 µM	1.07
RD, 0.1235 µM	1.1
RD, 0.3704 µM	1.07
RD, 1.111 µM	1.08
RD, 3.333 µM	1.09
RD, 10 µM	0.997
RD-ES, 0.00017 µM	0.985
RD-ES, 0.00051 µM	1
RD-ES, 0.00152 µM	1.03
RD-ES, 0.00457 µM	1.002
RD-ES, 0.01372 µM	0.978
RD-ES, 0.04115 µM	0.989
RD-ES, 0.1235 µM	1.02
RD-ES, 0.3704 µM	1.01
RD-ES, 1.111 µM	0.985
RD-ES, 3.333 µM	0.983
RD-ES, 10 µM	0.996
SK-LMS-1, 0.00017 µM	1.01
SK-LMS-1, 0.00051 µM	1.05
SK-LMS-1, 0.00152 µM	1.02
SK-LMS-1, 0.00457 µM	1.06
SK-LMS-1, 0.01372 µM	1.01
SK-LMS-1, 0.04115 µM	0.994
SK-LMS-1, 0.1235 µM	1.02
SK-LMS-1, 0.3704 µM	1.01
SK-LMS-1, 1.111 µM	0.848
SK-LMS-1, 3.333 µM	0.836
SK-LMS-1, 10 µM	0.68
SW684, 0.00017 µM	1.08
SW684, 0.00051 µM	1.16
SW684, 0.00152 µM	1.19
SW684, 0.00457 µM	1.14
SW684, 0.01372 µM	1.15
SW684, 0.04115 µM	1.18
SW684, 0.1235 µM	1.18
SW684, 0.3704 µM	1.21
SW684, 1.111 µM	1.24
SW684, 3.333 µM	1.16
SW684, 10 µM	1.12
SW872, 0.00017 µM	1.07
SW872, 0.00051 µM	1.1
SW872, 0.00152 µM	1.05
SW872, 0.00457 µM	1.03
SW872, 0.01372 µM	0.986
SW872, 0.04115 µM	1.05
SW872, 0.1235 µM	1.04
SW872, 0.3704 µM	0.982
SW872, 1.111 µM	0.891
SW872, 3.333 µM	0.629
SW872, 10 µM	0.519
SW1353, 0.00017 µM	1.11
SW1353, 0.00051 µM	1.1
SW1353, 0.00152 µM	1.09
SW1353, 0.00457 µM	1.08
SW1353, 0.01372 µM	1.04
SW1353, 0.04115 µM	1.04
SW1353, 0.1235 µM	1.05
SW1353, 0.3704 µM	1.07
SW1353, 1.111 µM	1.03
SW1353, 3.333 µM	1.02
SW1353, 10 µM	1.06
SYO-1, 0.00017 µM	1.01
SYO-1, 0.00051 µM	1.012
SYO-1, 0.00152 µM	0.99
SYO-1, 0.00457 µM	1.01
SYO-1, 0.01372 µM	0.977
SYO-1, 0.04115 µM	0.965
SYO-1, 0.1235 µM	0.97
SYO-1, 0.3704 µM	0.946
SYO-1, 1.111 µM	0.941
SYO-1, 3.333 µM	0.903
SYO-1, 10 µM	0.901

FC(F)(F)c1ccc(CNc2ccc(Cc3c[nH]c4ncc(Cl)cc34)cn2)cn1 [Pexidartinib]
Conditions	relative viability
G401, 0.00017 µM	1.03
G401, 0.00051 µM	1.036
G401, 0.00152 µM	1.03
G401, 0.00457 µM	1.05
G401, 0.01372 µM	1.02
G401, 0.04115 µM	1
G401, 0.1235 µM	0.685
G401, 0.3704 µM	0.9956
G401, 1.111 µM	0.9873
G401, 3.333 µM	0.95
G401, 10 µM	0.8332
HS729, 0.00017 µM	1.05
HS729, 0.00051 µM	1.01
HS729, 0.00152 µM	1.01
HS729, 0.00457 µM	0.978
HS729, 0.01372 µM	0.955
HS729, 0.04115 µM	0.962
HS729, 0.1235 µM	0.903
HS729, 0.3704 µM	0.902
HS729, 1.111 µM	0.861
HS729, 3.333 µM	0.767
HS729, 10 µM	0.683
HT1080, 0.00017 µM	1.14
HT1080, 0.00051 µM	1.12
HT1080, 0.00152 µM	1.12
HT1080, 0.00457 µM	1.05
HT1080, 0.01372 µM	1.1
HT1080, 0.04115 µM	1.1
HT1080, 0.1235 µM	1.06
HT1080, 0.3704 µM	1.08
HT1080, 1.111 µM	1.05
HT1080, 3.333 µM	1.065
HT1080, 10 µM	1.02
KHOS-240S, 0.00017 µM	1.09
KHOS-240S, 0.00051 µM	1.07
KHOS-240S, 0.00152 µM	1.07
KHOS-240S, 0.00457 µM	1.08
KHOS-240S, 0.01372 µM	1.08
KHOS-240S, 0.04115 µM	1.08
KHOS-240S, 0.1235 µM	1.1
KHOS-240S, 0.3704 µM	1.06
KHOS-240S, 1.111 µM	0.997
KHOS-240S, 3.333 µM	1
KHOS-240S, 10 µM	0.913
KHOS-NP, 0.00017 µM	1.106
KHOS-NP, 0.00051 µM	1.1
KHOS-NP, 0.00152 µM	1.084
KHOS-NP, 0.00457 µM	1.08
KHOS-NP, 0.01372 µM	1.07
KHOS-NP, 0.04115 µM	1.05
KHOS-NP, 0.1235 µM	1.05
KHOS-NP, 0.3704 µM	1.032
KHOS-NP, 1.111 µM	1.024
KHOS-NP, 3.333 µM	1.022
KHOS-NP, 10 µM	0.987
RD, 0.00017 µM	1.12
RD, 0.00051 µM	1.1
RD, 0.00152 µM	1.12
RD, 0.00457 µM	1.13
RD, 0.01372 µM	1.13
RD, 0.04115 µM	1.11
RD, 0.1235 µM	1.12
RD, 0.3704 µM	1.15
RD, 1.111 µM	1.14
RD, 3.333 µM	1.15
RD, 10 µM	1.17
RD-ES, 0.00017 µM	0.973
RD-ES, 0.00051 µM	0.99
RD-ES, 0.00152 µM	1.01
RD-ES, 0.00457 µM	1.02
RD-ES, 0.01372 µM	1.02
RD-ES, 0.04115 µM	0.982
RD-ES, 0.1235 µM	1.01
RD-ES, 0.3704 µM	0.998
RD-ES, 1.111 µM	0.977
RD-ES, 3.333 µM	0.959
RD-ES, 10 µM	0.969
SK-LMS-1, 0.00017 µM	1.03
SK-LMS-1, 0.00051 µM	1.06
SK-LMS-1, 0.00152 µM	1.05
SK-LMS-1, 0.00457 µM	1.04
SK-LMS-1, 0.01372 µM	1.03
SK-LMS-1, 0.04115 µM	1.03
SK-LMS-1, 0.1235 µM	1.05
SK-LMS-1, 0.3704 µM	1.02
SK-LMS-1, 1.111 µM	0.995
SK-LMS-1, 3.333 µM	1
SK-LMS-1, 10 µM	0.864
SW684, 0.00017 µM	1.14
SW684, 0.00051 µM	1.2
SW684, 0.00152 µM	1.19
SW684, 0.00457 µM	1.2
SW684, 0.01372 µM	1.15
SW684, 0.04115 µM	1.15
SW684, 0.1235 µM	1.16
SW684, 0.3704 µM	1.13
SW684, 1.111 µM	1.13
SW684, 3.333 µM	1.14
SW684, 10 µM	1.12
SW872, 0.00017 µM	1.12
SW872, 0.00051 µM	1.13
SW872, 0.00152 µM	1.1
SW872, 0.00457 µM	1.08
SW872, 0.01372 µM	1.05
SW872, 0.04115 µM	1.06
SW872, 0.1235 µM	1.05
SW872, 0.3704 µM	1.03
SW872, 1.111 µM	1.01
SW872, 3.333 µM	0.999
SW872, 10 µM	0.974
SW1353, 0.00017 µM	1.07
SW1353, 0.00051 µM	1.03
SW1353, 0.00152 µM	0.993
SW1353, 0.00457 µM	1.02
SW1353, 0.01372 µM	0.988
SW1353, 0.04115 µM	1.01
SW1353, 0.1235 µM	1
SW1353, 0.3704 µM	0.975
SW1353, 1.111 µM	0.897
SW1353, 3.333 µM	0.896
SW1353, 10 µM	0.85
SYO-1, 0.00017 µM	1.03
SYO-1, 0.00051 µM	1.03
SYO-1, 0.00152 µM	0.953
SYO-1, 0.00457 µM	0.94
SYO-1, 0.01372 µM	0.927
SYO-1, 0.04115 µM	0.925
SYO-1, 0.1235 µM	0.868
SYO-1, 0.3704 µM	0.8
SYO-1, 1.111 µM	0.733
SYO-1, 3.333 µM	0.701
SYO-1, 10 µM	0.659
